Assay results: patent publication US6737383B1, “Herbicidal oxadiazolidines” (priority 1999, dated 2004)

Tests used:
bedstraw = experiment: Test B pre/postemergence bedstraw; assay type: in vivo, Galium aparine
Method in brief: (§1)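 Test chemicals in a non-phytotoxic solvent mixture with surfactant were sprayed preemergence onto planted seeds and postemergence onto plants 2 to 18 cm tall (1- to 4-leaf stage). After twelve to sixteen days in a greenhouse, injury was visually rated against untreated controls from 0 (no effect) to 10 (complete control).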

blackgrass = experiment: Test B pre/postemergence blackgrass; assay type: in vivo, Alopecurus myosuroides
Method in brief: as §1

surinam grass = experiment: Test B pre/postemergence surinam grass; assay type: in vivo, Brachiaria decumbens
Method in brief: as §1

cocklebur = experiment: Test B pre/postemergence cocklebur; assay type: in vivo, Xanthium strumarium
Method in brief: as §1

corn = experiment: Test B pre/postemergence corn; assay type: in vivo, Zea mays
Method in brief: as §1

morningglory = experiment: Test B pre/postemergence morningglory; assay type: in vivo, Ipomoea hederacea
Method in brief: as §1

pigweed = experiment: Test B pre/postemergence pigweed; assay type: in vivo, Amaranthus retroflexus
Method in brief: as §1

rape = experiment: Test B pre/postemergence rape; assay type: in vivo, Brassica napus
Method in brief: as §1

velvetleaf = experiment: Test B pre/postemergence velvetleaf; assay type: in vivo, Abutilon theophrasti
Method in brief: as §1

wheat = experiment: Test B pre/postemergence wheat; assay type: in vivo, Triticum aestivum
Method in brief: as §1

wild oat = experiment: Test B pre/postemergence wild oat; assay type: in vivo, Avena fatua
Method in brief: as §1

purple nutsedge = experiment: Test B pre/postemergence purple nutsedge; assay type: in vivo, Cyperus rotundus
Method in brief: as §1

rice = experiment: Test B flood test rice; assay type: in vivo, Oryza sativa
Method in brief: (§2)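 Each value is a visual injury score relative to controls, with 10 meaning complete control and 0 no effect. Evaluation took place twelve to sixteen days after the 2-leaf-stage plants were treated and kept in the greenhouse.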

smallflower flatsedge = experiment: Test B flood test smallflower flatsedge; assay type: in vivo, Cyperus difformis
Method in brief: as §2

duck salad = experiment: Test B flood test duck salad; assay type: in vivo, Heteranthera limosa
Method in brief: as §2

bamyardgrass = experiment: Test B flood test barnyardgrass; assay type: in vivo, Echinochloa crus-galli
Method in brief: as §2

[1] = Preemergence, Rate 62 g/ha, scale of 0 to 10 where 0 is no effect and 10 is complete control
[2] = Preemergence, Rate 250 g/ha, scale of 0 to 10 where 0 is no effect and 10 is complete control
[3] = Preemergence, Rate 500 g/ha, scale of 0 to 10 where 0 is no effect and 10 is complete control
[4] = Rate 62 g/ha, Postemergence, scale of 0 to 10 where 0 is no effect and 10 is complete control
[5] = Rate 125 g/ha, Postemergence, scale of 0 to 10 where 0 is no effect and 10 is complete control
[6] = Rate 125 g/ha, Preemergence, scale of 0 to 10 where 0 is no effect and 10 is complete control
[7] = Rate 250 g/ha, Postemergence, scale of 0 to 10 where 0 is no effect and 10 is complete control
[8] = Rate 500 g/ha, Postemergence, scale 0 to 10, 0 no effect, 10 complete control
[9] = Rate 62 g/ha, headed Pre-emergence (flood test species), scale 0 to 10 (0 no effect, 10 complete control)
[10] = Rate 125 g/ha, Pre-emergence, flood test species, scale 0 to 10 where 0 is no effect and 10 is complete control
[11] = Rate 250 g/ha, Pre-emergence, flood-test species, scale 0 to 10, 0 is no effect, 10 is complete control
[12] = Rate 500 g/ha, Pre-emergence, flood test species, scale 0 to 10 (0 no effect, 10 complete control)

**Q.** What does the source list for CC(C)N(C(=O)n1oc(=O)n(Cc2ccccn2)c1=O)c1ccc(F)cc1 [Compound 267]?
**A.** Bedstraw plant response rating (bedstraw; [1]): 0; Bedstraw plant response rating (bedstraw; [2]): 0; Plant response rating, Bedstraw (bedstraw; [3]): 2; Bedstraw plant response rating (bedstraw; [4]): 0; Bedstraw plant response rating (bedstraw; [5]): 0; Bedstraw plant response rating (bedstraw; [6]): 0; Plant response rating, Bedstraw (bedstraw; [7]): 4; Bedstraw plant response rating (bedstraw; [8]): 7; Blackgrass plant response rating (blackgrass; [1]): 0; Blackgrass plant response rating (blackgrass; [2]): 2; Plant response rating, Blackgrass (blackgrass; [3]): 8; Blackgrass plant response rating (blackgrass; [4]): 0; Blackgrass plant response rating (blackgrass; [5]): 0; Blackgrass plant response rating (blackgrass; [6]): 2; Plant response rating, Blackgrass (blackgrass; [7]): 5; Blackgrass plant response rating (blackgrass; [8]): 8; B. signalgrass plant response rating (surinam grass; [1]): 0; B. signalgrass plant response rating (surinam grass; [2]): 0; Plant response rating, B. signalgrass (surinam grass; [3]): 9; B. signalgrass plant response rating (surinam grass; [4]): 0; B. signalgrass plant response rating (surinam grass; [5]): 0; B. signalgrass plant response rating (surinam grass; [6]): 0; Plant response rating, B. signalgrass (surinam grass; [7]): 0; B. signalgrass plant response rating (surinam grass; [8]): 3; Cocklebur plant response rating (cocklebur; [1]): 0; Cocklebur plant response rating (cocklebur; [2]): 0; Plant response rating, Cocklebur (cocklebur; [3]): 0; Cocklebur plant response rating (cocklebur; [4]): 0; Cocklebur plant response rating (cocklebur; [5]): 0; Cocklebur plant response rating (cocklebur; [6]): 0; Plant response rating, Cocklebur (cocklebur; [7]): 1; Cocklebur plant response rating (cocklebur; [8]): 3; Corn plant response rating (corn; [1]): 0; Corn plant response rating (corn; [2]): 2; Plant response rating, Corn (corn; [3]): 3; Corn plant response rating (corn; [4]): 0; Corn plant response rating (corn; [5]): 0; Corn plant response rating (corn; [6]): 0; Plant response rating, Corn (corn; [7]): 0; Corn plant response rating (corn; [8]): 0; Morningglory plant response rating (morningglory; [1]): 0; Morningglory plant response rating (morningglory; [2]): 0; Plant response rating, Morningglory (morningglory; [3]): 0; Morningglory plant response rating (morningglory; [5]): 1; Morningglory plant response rating (morningglory; [6]): 0; Plant response rating, Morningglory (morningglory; [7]): 3; Morningglory plant response rating (morningglory; [8]): 8; Redroot pigweed plant response rating (pigweed; [1]): 0; Redroot pigweed plant response rating (pigweed; [2]): 6; Plant response rating, Redroot pigweed (pigweed; [3]): 7; Redroot pigweed plant response rating (pigweed; [5]): 0; Redroot pigweed plant response rating (pigweed; [6]): 3; Plant response rating, Redroot pigweed (pigweed; [7]): 0; Redroot pigweed plant response rating (pigweed; [8]): 6; Rape plant response rating (rape; [1]): 0; Rape plant response rating (rape; [2]): 0; Plant response rating, Rape (rape; [3]): 0; Rape plant response rating (rape; [5]): 0; Rape plant response rating (rape; [6]): 0; Plant response rating, Rape (rape; [7]): 0; Rape plant response rating (rape; [8]): 2; Velvetleaf plant response rating (velvetleaf; [1]): 0; Velvetleaf plant response rating (velvetleaf; [2]): 0; Plant response rating, Velvetleaf (velvetleaf; [3]): 3; Velvetleaf plant response rating (velvetleaf; [5]): 0; Velvetleaf plant response rating (velvetleaf; [6]): 0; Plant response rating, Velvetleaf (velvetleaf; [7]): 1; Velvetleaf plant response rating (velvetleaf; [8]): 3; Wheat plant response rating (wheat; [1]): 0; Wheat plant response rating (wheat; [2]): 0; Plant response rating, Wheat (wheat; [3]): 0; Wheat plant response rating (wheat; [5]): 0; Wheat plant response rating (wheat; [6]): 0; Plant response rating, Wheat (wheat; [7]): 3; Wheat plant response rating (wheat; [8]): 4; Wild oats plant response rating (wild oat; [1]): 0; Wild oats plant response rating (wild oat; [2]): 0; Plant response rating, Wild oats (wild oat; [3]): 2; Wild oats plant response rating (wild oat; [5]): 0; Wild oats plant response rating (wild oat; [6]): 0; Plant response rating, Wild oats (wild oat; [7]): 2; Wild oats plant response rating (wild oat; [8]): 4; Nutsedge plant response rating (purple nutsedge; [1]): 0; Nutsedge plant response rating (purple nutsedge; [2]): 0; Plant response rating, Nutsedge (purple nutsedge; [3]): 0; Nutsedge plant response rating (purple nutsedge; [5]): 0; Nutsedge plant response rating (purple nutsedge; [6]): 0; Plant response rating, Nutsedge (purple nutsedge; [7]): 0; Nutsedge plant response rating (purple nutsedge; [8]): 4; Rice plant response rating (rice; [9]): 0; Rice plant response rating (rice; [10]): 0; Rice plant response rating (rice; [11]): 0; Rice plant response rating (rice; [12]): 0; S. Flatsedge plant response rating (smallflower flatsedge; [9]): 0; S. Flatsedge plant response rating (smallflower flatsedge; [10]): 0; S. Flatsedge plant response rating (smallflower flatsedge; [11]): 0; S. Flatsedge plant response rating (smallflower flatsedge; [12]): 0; Ducksalad plant response rating (duck salad; [9]): 0; Ducksalad plant response rating (duck salad; [10]): 0; Ducksalad plant response rating (duck salad; [11]): 0; Ducksalad plant response rating (duck salad; [12]): 0; Barnyardgrass plant response rating (bamyardgrass; [9]): 0; Barnyardgrass plant response rating (bamyardgrass; [10]): 0; Barnyardgrass plant response rating (bamyardgrass; [11]): 0; Barnyardgrass plant response rating (bamyardgrass; [12]): 0
